Source: PubChem BioAssay AID2060344 (Molecular Pharmacology Branch, DTP, NCI, 2025)
pIC50: −log10 of the molar value.

Test system: SK-MEL-2 multi-cell spheroids, viability
Assay: Anticancer human tumor SK-MEL-2 cell line growth inhibition [TAK];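 also: spheroids exposed to drugs for seven days before readout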;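 as to viability, T/C: percent of DMSO vehicle control luminescence so 100% = untreated viability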
Settings: for pIC50: curve of first compound; for viability, T/C: stronger effect = lower value
Source text: Combinatorial screen of targeted agents with TAK-243 and ipatasertib in multi-cell type tumor spheroids
A high-throughput screen of multi-cell type tumor spheroids was designed to identify active combinations of targeted small molecules and TAK-243 or ipatasertib. Complex spheroids include a stromal component modeled by human endothelial cells (HUVEC) and fibroblasts modeled by human mesenchymal stem cells (MSCs). The concentration ranges selected for each drug and investigational agent were based upon clinically achievable concentrations if the clinical Cmax of the agent was known.
Compounds. The drugs and investigational agents: TAK-243 (785004), ipatasertib (767898), everolimus (733504), selumetinib (741078), bortezomib (756655), trametinib (758246), ixazomib (758254), vemurafenib (761431), dabrafenib (764134), sapanisertib (764658), alpelisib (765974), and copanlisib (816437), were obtained from the National Cancer Institute (NCI) Developmental Therapeutics Program Chemical Repository. The FDA-approved anticancer drug set is available from the NCI Developmental Therapeutics Program. […] The stock solutions were prepared in dimethyl sulfoxide (DMSO, Sigma-Aldrich, St. Louis, MO, cat. D2650) at 800-fold the tested concentration and stored at -70 degrees C prior to their use. All drugs and investigational agents were tested over a range starting from a high concentration at or near the clinical Cmax and decreasing in half-log increments. If the clinical Cmax for an agent had not been determined, the highest concentration tested was 10 microM.
NCI60 Cell Culture. NCI60 cell lines were obtained from the NCI Developmental Therapeutics Program Tumor Repository. For each lot of cells, the Repository performed Applied Biosystems AmpFLSTR Identifiler testing with PCR amplification to confirm consistency with the published Identifier STR profile for each cell line. Cells were kept in continuous culture for no more than 20 passages. The optimal seeding densities for each of the cell lines at each time point assessed were determined prior to performing the concentration response studies. Briefly, the NCI60 human tumor lines were grown as monolayers in RPMI 1640 medium supplemented with 10% FBS and 2 mmol/L L-glutamine.
An additional 2 lines were from the NCI60 cell line panel including melanomas, MALME-3M and SK-MEL-2. Pooled donor human umbilical vein endothelial cells (HUVEC, Lonza, cat. CC-2519) and human mesenchymal stem cells (hMSC, Lonza, cat. PT-2501) were purchased from Lonza (Walkersville, MD).
PDMR cell lines were grown in complete medium (DC medium): Dulbecco's modified Eagle's medium (DMEM)/F12 supplemented with 5% fetal bovine serum (FBS), 2 mM L-glutamine, 100 U/mL penicillin and 100 µg/ml streptomycin, 0.4 µg/ml hydrocortisone, 10 ng/ml epidermal growth factor (EGF) recombinant human protein, 24 µg/mL adenine, and 0.1 mg/mL primocin. During culture from frozen stock vials, PDMR cells were cultured in the same medium containing 10 µM Y-27632 (see Table 3). The PDCs were cultured in complete DMEM/F12 media without 10 microM Y-27632 dihydrochloride for at least two passages prior to the screen. The pooled donor HUVEC and hMSC were cultured in endothelial cell growth medium 2 (PromoCell, Heidelberg, Germany, cat. C-22011) and mesenchymal stem cell growth medium 2 (PromoCell, cat. C-28009), respectively. For all experiments, HUVEC and hMSC were used at passages </=5.
For the pre-screen, cell seeding densities were determined from a titration spanning the range from 5,000 to 313 cells per well. The mct-spheroids including 60% malignant cells, 25% HUVEC and 15% MSC dispensed as a mixture into U-bottom Ultra-Low Attachment 384-well plates (Corning, NY)
High-throughput Drug Combination Screening.
Prior to their inoculation into 384-well plates, malignant cells, HUVEC, and hMSC were removed from T flasks using TrypLE express (Thermo Fisher Scientific, cat. 12605036) and harvested by centrifugation for 5 min at 233 x g. […]

For CC(C)CC(NC(=O)C(Cc1ccccc1)NC(=O)c1cnccn1)B(O)O (stereo not given) + CC(C)NCC(C(=O)N1CCN(c2ncnc3c2C(C)CC3O)CC1)c1ccc(Cl)cc1, the pIC50 (second compound 0.3 µM) was under 8.00, the pIC50 (second compound 0.949 µM) was under 8.00 and the pIC50 (second compound 3 µM) was under 8.00. The pIC50 (second compound 9.49 µM) was 8.37, the pIC50 (second compound 30 µM) was 8.11 and the viability, T/C (second compound 0.3 µM, first compound 31.6 pM) was 116%. It also gave a viability, T/C (second compound 0.3 µM, first compound 0.0001 µM) of 110%, a viability, T/C (second compound 0.3 µM, first compound 0.000316 µM) of 104% and a viability, T/C (second compound 0.3 µM, first compound 0.001 µM) of 117%. For the same compound, the viability, T/C (second compound 0.3 µM, first compound 0.00316 µM) was 122%, the viability, T/C (second compound 0.3 µM, first compound 0.01 µM) was 103% and the viability, T/C (second compound 0.949 µM, first compound 31.6 pM) was 120%. It also gave a viability, T/C (second compound 0.949 µM, first compound 0.0001 µM) of 116%, a viability, T/C (second compound 0.949 µM, first compound 0.000316 µM) of 111% and a viability, T/C (second compound 0.949 µM, first compound 0.001 µM) of 119%. For the same compound, the viability, T/C (second compound 0.949 µM, first compound 0.00316 µM) was 111%, the viability, T/C (second compound 0.949 µM, first compound 0.01 µM) was 118% and the viability, T/C (second compound 3 µM, first compound 31.6 pM) was 119%. It also gave a viability, T/C (second compound 3 µM, first compound 0.0001 µM) of 117%, a viability, T/C (second compound 3 µM, first compound 0.000316 µM) of 98.7% and a viability, T/C (second compound 3 µM, first compound 0.001 µM) of 106%. For the same compound, the viability, T/C (second compound 3 µM, first compound 0.00316 µM) was 114%, the viability, T/C (second compound 3 µM, first compound 0.01 µM) was 114% and the viability, T/C (second compound 9.49 µM, first compound 31.6 pM) was 118%. It also gave a viability, T/C (second compound 9.49 µM, first compound 0.0001 µM) of 119%, a viability, T/C (second compound 9.49 µM, first compound 0.000316 µM) of 113% and a viability, T/C (second compound 9.49 µM, first compound 0.001 µM) of 109%. For the same compound, the viability, T/C (second compound 9.49 µM, first compound 0.00316 µM) was 62.5%, the viability, T/C (second compound 9.49 µM, first compound 0.01 µM) was 13.1% and the viability, T/C (second compound 30 µM, first compound 31.6 pM) was 115%. For the same compound, the viability, T/C (second compound 30 µM, first compound 0.0001 µM) was 123%, the viability, T/C (second compound 30 µM, first compound 0.000316 µM) was 111% and the viability, T/C (second compound 30 µM, first compound 0.001 µM) was 114%. For the same compound, the viability, T/C (second compound 30 µM, first compound 0.00316 µM) was 119% and the viability, T/C (second compound 30 µM, first compound 0.01 µM) was 31.2%.

Work on Cn1cnc2c(F)c(Nc3ccc(Br)cc3Cl)c(C(=O)NOCCO)cc21 + CC(C)NCC(C(=O)N1CCN(c2ncnc3c2C(C)CC3O)CC1)c1ccc(Cl)cc1 yielded a pIC50 (second compound 0.3 µM) of over 8.02, a pIC50 (second compound 0.949 µM) of over 8.02 and a pIC50 (second compound 3 µM) of over 8.02. The pIC50 (second compound 9.49 µM) was over 8.02, the pIC50 (second compound 30 µM) was over 8.02 and the viability, T/C (second compound 0.3 µM, first compound 0.00949 µM) was 36.2%. For the same compound, the viability, T/C (second compound 0.3 µM, first compound 0.03 µM) was 15.6%, the viability, T/C (second compound 0.3 µM, first compound 0.0949 µM) was 5.04% and the viability, T/C (second compound 0.3 µM, first compound 0.3 µM) was 5.04%. For the same compound, the viability, T/C (second compound 0.3 µM, first compound 0.949 µM) was 2.85%, the viability, T/C (second compound 0.3 µM, first compound 3 µM) was 1.59% and the viability, T/C (second compound 0.949 µM, first compound 0.00949 µM) was 32.6%. It also gave a viability, T/C (second compound 0.949 µM, first compound 0.03 µM) of 12.9%, a viability, T/C (second compound 0.949 µM, first compound 0.0949 µM) of 4.14% and a viability, T/C (second compound 0.949 µM, first compound 0.3 µM) of 2.7%. It also gave a viability, T/C (second compound 0.949 µM, first compound 0.949 µM) of 1.73%, a viability, T/C (second compound 0.949 µM, first compound 3 µM) of 1.41% and a viability, T/C (second compound 3 µM, first compound 0.00949 µM) of 24.3%. It also gave a viability, T/C (second compound 3 µM, first compound 0.03 µM) of 10.2%, a viability, T/C (second compound 3 µM, first compound 0.0949 µM) of 2.52% and a viability, T/C (second compound 3 µM, first compound 0.3 µM) of 1.7%. It also gave a viability, T/C (second compound 3 µM, first compound 0.949 µM) of 1.41%, a viability, T/C (second compound 3 µM, first compound 3 µM) of 0.98% and a viability, T/C (second compound 9.49 µM, first compound 0.00949 µM) of 19.3%. It also gave a viability, T/C (second compound 9.49 µM, first compound 0.03 µM) of 9.42%, a viability, T/C (second compound 9.49 µM, first compound 0.0949 µM) of 2.79% and a viability, T/C (second compound 9.49 µM, first compound 0.3 µM) of 1.33%. The viability, T/C (second compound 9.49 µM, first compound 0.949 µM) was 0.9%, the viability, T/C (second compound 9.49 µM, first compound 3 µM) was 0.56% and the viability, T/C (second compound 30 µM, first compound 0.00949 µM) was 21.7%. The viability, T/C (second compound 30 µM, first compound 0.03 µM) was 8.51%, the viability, T/C (second compound 30 µM, first compound 0.0949 µM) was 2.57% and the viability, T/C (second compound 30 µM, first compound 0.3 µM) was 0.97%. The viability, T/C (second compound 30 µM, first compound 0.949 µM) was 0.37% and the viability, T/C (second compound 30 µM, first compound 3 µM) was 0.35%.
